From US20250212873A1, “VOLATILE HDAC INHIBITORS FOR THERAPEUTIC AND PLANT APPLICATIONS” (The Regents of the University of California, priority 2022, published 2025)
“Also recorded” adds a separate entry of the source.

Assays:
SH-SY5Y Cancer cell line = test: Cancer cell viability assay, SH-SY5Y; format: cell-based
Experimental: (§1) Cells were maintained in a 37° C. incubator with 5% CO2 throughout the experiment. Compound stocks were dissolved in 10% DMSO, but final concentrations were made fresh in complete media as needed. 10% DMSO solvent was used as control in complete media. Cells were seeded onto 12-well plates and allowed 12-24 hours until treatment began to allow cells to adhere to wells. This was followed by minimum 5-day treatment of compounds, changing the media with treatment every 48 hours. Cell lines A549, PC3, and SK-MEL-5 were seeded at 8000 cells/well which would provide 80-100% confluency after 6-day growth. SH-SY5Y was seeded at 8000 cells/well then 16,000 cells/well due to slower growth and given at least 10 days for sufficient growth. After allotted growth times, cell counts were performed via Countess™ automated cell counter. All assays were completed with a minimum of triplicate replicates for all conditions and analyzed through GraphPad Prism One-way ANOVA for significance.

[1] = test system: Arabidopsis thaliana leaflets; test: RNA-seq of leaflets of Arabidopsis exposed to diacetyl; format: in vivo
Experimental: A. thaliana plants (Col-0) that had been transplanted at day 7 to soil were placed in the experimental room for 2 days to acclimate (23°° C. with a 12-hour light/dark cycle). A single potted plant was placed in a 4-liter clear glass jar, with openings attached to a vacuum to allow for air exchange. A small beaker containing 1 ml of 1% diacetyl in PO or PO alone were placed inside the jar. Plants were watered at 2.5 days. After 5 days, individual leaflets were dissected, and flash frozen in liquid nitrogen. Trizol-based RNA isolation was carried out as above. Two biological replicates were performed for each condition, with an average of 68,355,820 reads/replicate, with an average of 95% mapped. Multiplexed libraries were made from total RNA input using the Illumina TruSeq RNA sample preparation kit (v2) and 50 bps single-end sequencing was done using the NextSeq500.
The HDACs are also important for gene expression in the shoots as well. Young plants in pots were exposed to vapors of diacetyl from a solution of the same concentration as before and performed an RNASeq analyses. 321 genes were differentially regulated in the leaflet of Arabidopsis thaliana following exposure to volatile diacetyl for 5 days (FDR<0.05). These DEGs are distributed across multiple chromosome locations and represent genes of diverse molecular functions (FIG. 27C). […]

[2] = test system: Arabidopsis thaliana seedlings; test: Odor Exposure assay, Arabidopsis thaliana seedlings (root and leaf development); format: in vivo; settings: 10-fold lower dose (0.1% solution headspace)
PC3 Cancer cell line = test: Cancer cell viability assay, PC3; format: cell-based
Experimental: as §1

[3] = test system: Class I and Class II HDACs; test: In vitro assays with purified human Class I and II HDACs (panel statements); format: biochemical; settings: 15 mM in 1% DMSO; HDAC 1, 3, 4 and 6
Experimental: Presented are data for selected compounds that act as Histone deacetylase inhibitors in vitro or HDAC inhibitors. 26 compounds were screened against purified human HDACs.
HDAC activity of class I HDACs (HDAC1 and 3) was measured with the fluorometric HDAC Activity Assay kit: HDAC1 (10011563, Cayman Chemical, Ann Arbor, MI) and HDAC3 (50073 BPS Bioscience, San Diego, CA), according to the manufacturer's instructions. HDAC activity of class II HDACs (HDAC4 and HDAC6) was measured with the fluorometric HDAC Activity Assay kit: HDAC4, […] (50064 and 50076, BPS Bioscience, San Diego, CA), according to the manufacturer's instructions. All compounds were tested in single dose duplicate mode at 15 mM concentrations in 1% DMSO, based on the IC50 of 2,3-butanedione established in earlier work. Due to interference, concentrations of >30 mM were not used in the IC50 calculation. To account for any interference at lower concentrations, all baseline measurements of blank wells (no HDAC enzyme) were performed and subtracted with the various concentrations of 2,3-butanedione.
Diacetyl and 3 structurally related VOCs were evaluated using in vitro assay kits for measuring activity of four purified HDACs. Of the four VOCs), each has a different functional group, two are natural in origin, previously detected from microbes that are known to be present in soil (M. C. Lemfack et al., Nucleic Acids Res 46, D1261-D1265 (2018); and R. H. Cagan, W. N. Zeiger, Proc. Nat. Acad. Sci. U.S.A. 75, 4679-4683 (1978)) and two that are not (α-angelica lactone and ethyl pyruvate). […] All 4 VOCs inhibited both Class I HDACs (L. L. Walling, The Myriad Plant Responses to Herbivores. J Plant Growth Regul 19, 195-216 (2000); and M. Heil, R. Karban, Trends Ecol Evol 25, 137-144 (2010)) and the Class II HDAC6 with differences in degree (FIG. 2A,B).

CC(=O)C(C)=O [2,3-butanedione]
inhibition of neuroblastoma (SH-SY5Y) cell line, summary (SH-SY5Y Cancer cell line): has potential in inhibiting | changes in proliferation, SH-SY5Y (SH-SY5Y Cancer cell line; 33 micro-molar): significant inhibition of cell growth; also recorded: Significant changes in proliferations | changes in proliferation, SH-SY5Y (SH-SY5Y Cancer cell line; 100 micro-molar): significant inhibition of cell growth; also recorded: Significant changes in proliferations | gene expression in leaflets (RNA-seq) ([1]; volatile exposure): significant changes in gene expression | genes differentially regulated in the leaflet ([1]; volatile exposure 5 days, 1% in PO, FDR<0.05): 321 genes | change from solvent treated seedlings in every growth category [2]: significant change | inhibition of prostate cancer (PC3) cell line, summary (PC3 Cancer cell line): has potential in inhibiting | changes in proliferation, PC3 (PC3 Cancer cell line; 33 uM, triplicates): No Significant changes in proliferations | HDAC inhibition against Class I and Class II HDACs [3]: inhibits both class 1 and class 2 HDACs
